The values below come from patent publication US20240182867A1, “CHEMICAL REPROGRAMMING OF HUMAN SOMATIC CELLS INTO PLURIPOTENT CELLS” (Peking University, priority 2021, published 2024).

Experiment [1] concerns human somatic cells. In words: hCiPSC colonies at the end of reprogramming after withdrawing individual chemicals from stage I or II. It counts as cell-based. The note with it: factor removed. The procedure:
Cells were maintained at 37° C. with 21% 02 and 5% CO2. The induction medium was changed every 3-4 days. HEFs were seeded at a density of 1-1.5×10^4 cells per well of a 12-well plate in 15%. FBS-DMEM medium. Change the medium into stage I induction medium on the next day. For stage I induction, single layer epithelial-like cells would emerge at day 4-6 and approach 80%-100% confluence at day 8-12, then change the medium into stage II induction medium. For stage II induction, multi-layered colonies appeared after 8-12 days treatment and these cell colonies would continually grow larger. After totally 16-20 days' stage II treatment, change the medium into stage III condition. For stage III induction, 8-12 days treatment of stage III medium is required and then change the medium into stage IV condition. For stage IV induction, VPA (500 μM) was included in the first 4 days. Primary hCiPSC colonies would emerge after 6-8 days' treatment. At the end of stage IV, immunofluorescent staining of co-expression of OCT4 and NANOG was used to confirm the generation of primary hCiPSC colonies. Primary hCiPSC colony number was calculated as the number of the compact OCT4 positive colonies. Reprogramming efficiency was calculated as the number of primary hCiPSC colonies divided by the number of input HEFs.
(§1) In several experiments, to testing the reprogramming efficiency after removing each small molecules, the indicated small molecules were removed from the cocktails. The concentration of the small molecules used to regulate the same pathway or targets were indicated as follow: GSK3 inhibitors (CHIR99021: 3-15 μM; TD114-2: 0.5-2 μM; CHIR98014: 1-3 μM; GSK3βi XV: 0.05-0.2 μM); RA pathway agonists (TTNPB: 0.5-10 μM; Ch55: 1-5 μM; AM580: 0.1-1 μM); Rock inhibitors (TZV: 2-10 μM; Y27632: 2-15 μM; Fasudil: 2-10 μM; HA1100: 2-10 μM); TGFβ inhibitors (A8301: 0.1-5 μM; SB431542: 2-50 μM; LY364947: 0.5 μM; LY21: 0.5 μM; 616452: 10 μM).
(§2) In several experiments, to testing the reprogramming efficiency after regulate each small molecules, the indicated small molecules were removed from the cocktails. The concentration of the small molecules used to targeting the same pathway or targets were indicated as follow: GSK3 inhibitors (CHIR99021: 3-15 μM; TD114-2: 0.5-2 μM; CHIR98014: 1-3 μM; GSK3βi XV: 0.05-0.2 μM); TGFβ inhibitors (A8301: 0.2-5 μM; SB431542: 2-50 μM; 616452: 10 μM); RA pathway agonists (TTNPB: 0.2-10 μM; Ch55: 1-10 μM; AM580: 0.1-1 μM); Rock inhibitors (Y27632: 2-15 μM; Fasudil: 2-10 μM; HA1100: 2-10 μM; TZV: 2-10 μM); Smoothened agonists (SAG: 0.2-2 μM; Purmorphamine: 0.5-2 μM; Hg-Ag1.5: 0.5-1 μM; Human shh: 20-200 μM); histone demethylation inhibitors (Tranylcypromine: 2-50 μM; GSK2879: 0.02-2 μM; LSD-C76: 0.2-5 μM; S2101: 0.5-5 μM; LSD-2D: 0.2-5 μM; RN-1: 0.2-5 μM); DNMT inhibitors (5-azaC: 2-15 μM; Decitabine: 0.5-10 μM; RG108: 0.5-10 μM); JNK inhibitors (JNK-in-8: 0.2-2 μM; JNK-in-5: 0.5-1 μM; JNK-in-7: 0.2-2 μM; JNK-in-12: 0.2-0.5 μM); CBP/p300 bromodomain inhibitor (SGC-CBP30: 0.5-2 μM; I-CBP112: 0.5-5 μM; GNE272: 0.5-5μM; GNE409:0.5-5μM); Menin-MLL interaction inhibitor (VTP50469: 0.5-2μM; MI3454: 0.5-2μM; WDR5-IN-4: 0.5-2μM).

Experiment [2] deals with fibroblast marker genes (somatic program). Kind of experiment: Withdrawing individual chemicals from stage I: fibroblast marker genes. The class given is cell-based, human. The settings on record: compound removed from stage I condition. The procedure:
as §1, with “Ch55: 1-5 μM;” left out, “([…]:” for “(A8301:”, “μM). […] The data were analyzed using the delta-delta Ct method. GAPDH was used as a control to normalize the expression of target genes.” for “μM).”

In experiment [3] the test system is LIN28A. Kind of experiment: Withdrawing individual chemicals from stage I: LIN28A expression. It counts as cell-based, human. The settings on record: compound removed from stage I condition. The method, then: as §1, with “Ch55: 1-5 μM;” left out, “([…]:” for “(A8301:”, “μM). […] The data were analyzed using the delta-delta Ct method. GAPDH was used as a control to normalize the expression of target genes.” for “μM).”

Experiment [4] concerns human somatic cells. Kind of experiment: Reprogramming efficiency with supplemental inhibitors. The settings on record: inhibitor added to induction medium. It counts as cell-based. The procedure: KnockOut™ DMEM supplemented with 10% KSR, 10% FBS, 1% GlutaMAX™, 1% NEAA, 0.055 mM 2-mercaptoethanol, 1% Penicillin-Streptomycin, 50 μg/ml Vc2p, 5 mM LiCl, 1 mM NAM, 100 ng/ml bFGF (Origene) and the small molecules CHIR99021 (10-12 μM), 616452 (10 μM), TTNPB (2 μM), SAG (0.5 μM), ABT-869 (1 μM), Y-27632 (10 μM), JNKIN8 (1 μM), Tranylcypromine (2 μM), 5-Azacytidine (5 μM), UNC0224 (1 μM), Ruxolitinib (1 μM), BIRB796 (2 μM), Dorsormorphin (0.5-1 μM). To enhance the reprogramming efficiency, the CBP/p300 bromodomain inhibitor SGC-CBP30 (2 μM) and Menin-MLL interaction inhibitor VTP50469 were introduced in stage II induction medium.
as §2, with “0.5-2μM). […]” for “0.5-2μM).”

In experiment [5] the test system is genes that activated at stage II. In words: Withdrawing individual chemicals from stage II: plasticity signatures and chromatin accessibility. It counts as cell-based, human. The procedure:
(§3) In several experiments, to testing the reprogramming efficiency after regulate each small molecules, the indicated small molecules were removed from the cocktails. […]
Approximately 5×10^4 cells of each sample were collected and washed once with cold PBS and re-suspended in 50 μL Lysis buffer (10 mM Tris-HCl PH7.4, 10 mM NaCl, 3 mM MgCl2, 0.5% NP-40). […] All ATAC libraries were sequenced on an Illumina Novaseq 6000 platform and 150 bp paired-end reads were generated. […]
Quality control was performed using FastQC to all samples. The raw ATAC-seq reads were trimmed using Trimmomatic with parameter ‘[…]:NexteraPE-PE.fa:2:30:7:1:true LEADING:3 TRAILING:3 SLIDINGWINDOW:4:15 MINLEN:36’ to remove detected adapters. Then the clean reads were mapped to human reference genome hg19 using Bowtie2 with parameter ‘—very-sensitive’. […] Duplicated reads were removed using MarkDuplicates function of Picard tools. Low quality mapped reads and reads mapped to mitochondrial were filtered using Samtools. […]
Overlapped peaks in different samples were merged and defined sample specific peak sets using R package ChIPpeakAnno. […] The ATAC signal strength around peak region or gene promoter region was quantified using Deeptools.

Experiment [6] has as its system SALL4. In words: Withdrawing individual chemicals from stage II: SALL4 activation. The class given is cell-based, human. The method, then: as §3
Total RNA was isolated using Direct-zol RNA MiniPrep Kit (Zymo Research, R2053). cDNA was synthesized from 0.5-1 μg of total RNA using TransScript First-Strand cDNA Synthesis SuperMix (TransGen Biotech, AT311-03). qPCR was performed by using KAPA SYBR FAST qPCR Kit Master Mix (KAPA Biosystems, KM4101) on a CFX ConnectTM Real-Time System (Bio-Rad). The data were analyzed using the delta-delta Ct method. […]

Structures are written as SMILES.

Turning to `C/C(=C\c1ccc(C(=O)O)cc1)c1ccc2c(c1)C(C)(C)CCC2(C)C` [TTNPB, 4-[(E)-2-(5,6,7,8-Tetrahydro-5,5,8,8-tetramethyl-2-naphthalenyl)-1-propenyl]benzoic acid], in experiment [1], the “generation of hCiPSCs” value was “greatly impaired”. Further, in experiment [2], the “downregulation of the somatic program” value is listed as “inhibited”. Moreover, the LIN28A activation entry in experiment [3] was “severely reduced”.
As to `Cc1cnc(-c2cnc(NCCNc3ccc(C#N)cn3)nc2-c2ccc(Cl)cc2Cl)[nH]1` [CHIR99021, 6-[[2-[[4-(2,4-Dichlorophenyl)-5-(5-methyl-1H-imidazol-2-yl)-2-pyrimidinyl]amino]ethyl]amino]-3-pyridinecarbonitrile], the “generation of hCiPSCs” value in experiment [1] is “greatly impaired”. In addition, the “downregulation of the somatic program” value in experiment [2] is reported as “inhibited”. Further, the LIN28A activation result in experiment [3] was “severely reduced”.
As for `CCC(=O)N1CCOc2c(cc(-c3ccc(OC)c(OC)c3)cc2OC[C@H]2CCCN(C)C2)C1` [I-CBP112], the reprogramming efficiency result in experiment [4] is reported as “can improve”.
Consider `COc1ccc(CCc2nc3cc(-c4c(C)noc4C)ccc3n2C[C@H](C)N2CCOCC2)cc1Cl` [SGC-CBP30, 2-[2-(3-chloro-4-methoxyphenyl)ethyl]-5-(3,5-dimethyl-4-isoxazolyl)-1-[(2S)-2-(4-morpholinyl)propyl]-1H-benzimidazole], for which the reprogramming efficiency entry in experiment [4] is given as “can improve”.
For the molecule `Cc1cccc(-c2n[nH]cc2-c2ccc3ncccc3n2)n1` [compound 616452, 2-(3-(6-Methylpyridin-2-yl)-1H-pyrazol-4-yl)-1,5-naphthyridine], the “generation of hCiPSCs” value in experiment [1] is listed as “greatly impaired”. For the same molecule, in experiment [2], the “downregulation of the somatic program” value is “inhibited”. Further, the LIN28A activation result in experiment [3] is reported as “severely reduced”.
For the molecule `CC(=O)N1CCc2c(c(Nc3ccc(-c4cnn(C)c4)cc3F)nn2[C@H]2CCOC2)C1` [GNE272], in experiment [4], the reprogramming efficiency entry was “can improve”.
For `Cc1cc(NC(=O)c2cccc(NC(=O)/C=C/CN(C)C)c2)ccc1Nc1nccc(-c2cccnc2)n1` [JNKIN8], the “opened chromatin status of the genes activated at stage II” value in experiment [5] (chromatin accessibility analysis) was “essential”. In addition, in experiment [5] (stage II), the “acquisition of plasticity signatures” value is recorded as “required”. Besides, the “generation of hCiPSCs” value in experiment [1] is listed as “greatly impaired”. The “activation of SALL4” value in experiment [6] is listed as “required”.
